Activity calls are given as the source filed them. A value given as a limit tells only on which side of the number the result lay.

What is called IC50 is the concentration needed to halve the response being measured. One may read the EC50 as the concentration giving half of the maximal effect. Usually AC50 stands for the concentration giving half of the maximal activity seen. For orientation: CC50 means the concentration giving 50% cytotoxicity.

Assay [1] deals with T1, Hexokinase HKDC1 (Homo sapiens, UniProt Q2TB90).
T1 sequence (Q2TB90 whole entry): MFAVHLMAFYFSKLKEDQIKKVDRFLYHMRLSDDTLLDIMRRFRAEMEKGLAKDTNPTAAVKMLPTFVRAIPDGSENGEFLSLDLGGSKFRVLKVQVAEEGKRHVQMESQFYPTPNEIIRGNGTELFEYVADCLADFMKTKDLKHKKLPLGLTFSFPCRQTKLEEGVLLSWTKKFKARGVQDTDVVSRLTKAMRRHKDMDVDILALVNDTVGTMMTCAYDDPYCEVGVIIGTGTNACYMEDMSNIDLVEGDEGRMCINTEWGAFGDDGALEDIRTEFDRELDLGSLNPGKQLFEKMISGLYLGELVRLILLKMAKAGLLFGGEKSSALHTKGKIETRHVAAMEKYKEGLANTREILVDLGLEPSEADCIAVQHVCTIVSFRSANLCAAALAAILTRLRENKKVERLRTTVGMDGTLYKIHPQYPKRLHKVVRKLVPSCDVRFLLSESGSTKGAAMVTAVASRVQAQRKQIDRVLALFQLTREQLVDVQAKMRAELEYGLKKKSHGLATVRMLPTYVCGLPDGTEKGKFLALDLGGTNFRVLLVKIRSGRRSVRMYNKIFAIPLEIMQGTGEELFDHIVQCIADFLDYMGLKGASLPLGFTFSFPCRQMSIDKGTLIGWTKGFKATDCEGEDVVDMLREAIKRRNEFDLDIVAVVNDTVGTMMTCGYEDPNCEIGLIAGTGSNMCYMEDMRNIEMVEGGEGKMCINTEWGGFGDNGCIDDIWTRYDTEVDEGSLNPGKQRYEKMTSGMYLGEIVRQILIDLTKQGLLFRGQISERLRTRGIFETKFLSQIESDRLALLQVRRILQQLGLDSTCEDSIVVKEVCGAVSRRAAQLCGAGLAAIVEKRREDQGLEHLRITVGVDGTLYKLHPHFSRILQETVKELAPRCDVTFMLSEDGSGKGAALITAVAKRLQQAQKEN
In words: HKDC1 hexokinase inhibitors, dose response, biochemical, W721R variant (AID 504729). The class given is functional.

Assay [2] concerns the target Mitochondrial peptide methionine sulfoxide reductase (Bos taurus, UniProt P54149). Nature of the assay: Absorbance-based biochemical high throughput dose response assay for activators of Methionine sulfoxide reductase A (MsrA). The class given is functional.
A short description of assay [3]: non-specific cell cytotoxicity, dose response, cytotoxicity control for PAX8 inhibitor project, plate reader, dry powder samples (AID 743021). The class given is functional, cell-based.
Assay [4] addresses Dual specificity tyrosine-phosphorylation-regulated kinase 1A (Rattus norvegicus, UniProt Q63470). The class given is biochemical, Homo sapiens.
Assay [5] addresses Genome polyprotein (dengue virus type 2, UniProt P29990). Nature of the assay: Dengue-2 NS5 methyltransferase inhibitors, primary screen, biochemical, confirmation dose response (AID 588689). The class given is functional.
The target of assay [6] is Phospholipase A2 (Homo sapiens, UniProt P04054). The class given is functional.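 Further: confirmatory dose-response counterscreen on phospholipase A2, testing hits that came from an ultra-high-throughput screen for ATG4B inhibitors.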
Assay [7] can be described thus: THP-1 cell cytotoxicity, dose response, cytotoxicity control for Vif-APOBEC3G degradation inhibitor project, THP-1 cells (AID 1117359). The class given is functional. The conditions noted are these: Human immunodeficiency virus 1, THP-1.
The target in assay [8] is Paired box protein Pax-8 (Homo sapiens, UniProt Q06710). Nature of the assay: inhibitors of PAX8-driven TPO luciferase reporter, dose response, RMG-I cells, cherry-pick (AID 687027).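 Further: luciferase reporter driven by Pax8 target thyroperoxidase promoter measured by SteadyGlo luminescence.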 The class given is functional, cell-based.
Assay [9] deals with Vero. In words: Vero cell cytotoxicity, cytotoxicity control for flavivirus capping enzyme inhibitors (AID 588742). The class given is functional. The conditions noted are these: Chlorocebus sabaeus.
The target in assay [10] is T2, Cysteine protease ATG4B (Homo sapiens, UniProt Q9Y4P1).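 Further: Fluorescence-based dose-response confirmation assay measuring inhibition of ATG4B activity.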
T2 sequence (Q9Y4P1 whole entry): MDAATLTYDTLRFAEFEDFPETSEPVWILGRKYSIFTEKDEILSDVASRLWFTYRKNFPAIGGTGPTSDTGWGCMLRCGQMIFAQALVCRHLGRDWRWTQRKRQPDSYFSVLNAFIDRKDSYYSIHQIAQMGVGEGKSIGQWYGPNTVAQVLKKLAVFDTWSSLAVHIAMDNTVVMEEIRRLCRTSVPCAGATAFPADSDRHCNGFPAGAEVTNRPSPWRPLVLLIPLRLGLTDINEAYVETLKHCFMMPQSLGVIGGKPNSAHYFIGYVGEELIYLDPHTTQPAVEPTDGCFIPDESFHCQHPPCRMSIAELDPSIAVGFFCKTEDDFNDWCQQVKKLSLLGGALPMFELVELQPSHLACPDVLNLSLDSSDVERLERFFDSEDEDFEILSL
The class given is functional.

The target of assay [11] is T3, Histone-lysine N-methyltransferase NSD2 (Homo sapiens, UniProt O96028).
T3 sequence (O96028 whole entry): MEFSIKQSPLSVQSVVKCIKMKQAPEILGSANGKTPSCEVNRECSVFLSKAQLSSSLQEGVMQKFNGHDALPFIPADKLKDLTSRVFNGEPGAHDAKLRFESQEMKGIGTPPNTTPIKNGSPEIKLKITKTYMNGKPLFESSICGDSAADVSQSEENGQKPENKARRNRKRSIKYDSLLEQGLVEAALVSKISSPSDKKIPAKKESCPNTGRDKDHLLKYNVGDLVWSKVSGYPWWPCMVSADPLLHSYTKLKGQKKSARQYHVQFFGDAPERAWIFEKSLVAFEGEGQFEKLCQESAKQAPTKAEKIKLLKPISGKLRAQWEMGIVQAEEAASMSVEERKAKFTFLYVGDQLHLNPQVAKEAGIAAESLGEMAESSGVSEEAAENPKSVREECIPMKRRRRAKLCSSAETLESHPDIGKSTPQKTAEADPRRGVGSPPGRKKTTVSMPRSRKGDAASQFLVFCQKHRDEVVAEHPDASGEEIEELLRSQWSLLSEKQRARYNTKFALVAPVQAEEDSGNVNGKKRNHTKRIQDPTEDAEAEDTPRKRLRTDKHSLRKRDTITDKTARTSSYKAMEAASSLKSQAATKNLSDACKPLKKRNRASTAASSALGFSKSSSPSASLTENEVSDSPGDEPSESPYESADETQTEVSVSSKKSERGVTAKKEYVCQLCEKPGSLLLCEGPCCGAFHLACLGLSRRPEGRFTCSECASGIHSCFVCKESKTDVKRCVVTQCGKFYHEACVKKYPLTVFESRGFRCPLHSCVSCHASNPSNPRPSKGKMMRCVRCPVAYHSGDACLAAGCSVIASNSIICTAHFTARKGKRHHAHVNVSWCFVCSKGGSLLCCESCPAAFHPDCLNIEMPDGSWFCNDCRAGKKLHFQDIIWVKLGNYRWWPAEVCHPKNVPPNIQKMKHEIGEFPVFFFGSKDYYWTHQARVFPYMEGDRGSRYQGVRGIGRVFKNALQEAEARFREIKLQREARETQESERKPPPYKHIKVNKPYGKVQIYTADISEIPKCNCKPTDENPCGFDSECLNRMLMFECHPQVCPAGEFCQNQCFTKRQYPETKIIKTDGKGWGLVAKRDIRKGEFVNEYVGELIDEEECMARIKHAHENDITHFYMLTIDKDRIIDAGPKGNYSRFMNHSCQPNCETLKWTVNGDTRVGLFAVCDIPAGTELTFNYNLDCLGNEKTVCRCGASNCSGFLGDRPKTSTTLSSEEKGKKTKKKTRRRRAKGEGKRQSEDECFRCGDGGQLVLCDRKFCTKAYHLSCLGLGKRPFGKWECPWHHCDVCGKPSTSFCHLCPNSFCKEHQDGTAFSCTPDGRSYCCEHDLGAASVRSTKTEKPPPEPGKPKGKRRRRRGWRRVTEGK
The class given is biochemical.

In assay [12] the target is T4, Tyrosyl-DNA phosphodiesterase 2 (Homo sapiens, UniProt O95551).
T4 sequence (O95551 whole entry): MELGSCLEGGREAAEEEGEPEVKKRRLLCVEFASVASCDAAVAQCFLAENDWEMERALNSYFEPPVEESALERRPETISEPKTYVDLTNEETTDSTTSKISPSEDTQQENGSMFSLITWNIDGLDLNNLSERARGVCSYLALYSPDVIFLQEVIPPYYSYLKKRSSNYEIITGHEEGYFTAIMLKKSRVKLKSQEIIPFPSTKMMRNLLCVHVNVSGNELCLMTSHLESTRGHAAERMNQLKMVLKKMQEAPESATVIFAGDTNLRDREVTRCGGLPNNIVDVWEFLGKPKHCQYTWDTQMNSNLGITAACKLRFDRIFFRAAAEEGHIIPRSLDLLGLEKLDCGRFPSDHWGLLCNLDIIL
In words: human TDP2 enzyme inhibitors, dose response, biochemical, epi absorbance, IC50 (AID 743297).

The target of assay [13] is Ras and Rab interactor 1/Tyrosine-protein kinase ABL1 (Homo sapiens, UniProt P00519+Q13671). The class given is functional.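 Further: biochemical TR-FRET dose-response test measuring inhibition of binding between Rin1 and Abl proteins.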
Sequence of Ras and Rab interactor 1/Tyrosine-protein kinase ABL1 (P00519 whole entry): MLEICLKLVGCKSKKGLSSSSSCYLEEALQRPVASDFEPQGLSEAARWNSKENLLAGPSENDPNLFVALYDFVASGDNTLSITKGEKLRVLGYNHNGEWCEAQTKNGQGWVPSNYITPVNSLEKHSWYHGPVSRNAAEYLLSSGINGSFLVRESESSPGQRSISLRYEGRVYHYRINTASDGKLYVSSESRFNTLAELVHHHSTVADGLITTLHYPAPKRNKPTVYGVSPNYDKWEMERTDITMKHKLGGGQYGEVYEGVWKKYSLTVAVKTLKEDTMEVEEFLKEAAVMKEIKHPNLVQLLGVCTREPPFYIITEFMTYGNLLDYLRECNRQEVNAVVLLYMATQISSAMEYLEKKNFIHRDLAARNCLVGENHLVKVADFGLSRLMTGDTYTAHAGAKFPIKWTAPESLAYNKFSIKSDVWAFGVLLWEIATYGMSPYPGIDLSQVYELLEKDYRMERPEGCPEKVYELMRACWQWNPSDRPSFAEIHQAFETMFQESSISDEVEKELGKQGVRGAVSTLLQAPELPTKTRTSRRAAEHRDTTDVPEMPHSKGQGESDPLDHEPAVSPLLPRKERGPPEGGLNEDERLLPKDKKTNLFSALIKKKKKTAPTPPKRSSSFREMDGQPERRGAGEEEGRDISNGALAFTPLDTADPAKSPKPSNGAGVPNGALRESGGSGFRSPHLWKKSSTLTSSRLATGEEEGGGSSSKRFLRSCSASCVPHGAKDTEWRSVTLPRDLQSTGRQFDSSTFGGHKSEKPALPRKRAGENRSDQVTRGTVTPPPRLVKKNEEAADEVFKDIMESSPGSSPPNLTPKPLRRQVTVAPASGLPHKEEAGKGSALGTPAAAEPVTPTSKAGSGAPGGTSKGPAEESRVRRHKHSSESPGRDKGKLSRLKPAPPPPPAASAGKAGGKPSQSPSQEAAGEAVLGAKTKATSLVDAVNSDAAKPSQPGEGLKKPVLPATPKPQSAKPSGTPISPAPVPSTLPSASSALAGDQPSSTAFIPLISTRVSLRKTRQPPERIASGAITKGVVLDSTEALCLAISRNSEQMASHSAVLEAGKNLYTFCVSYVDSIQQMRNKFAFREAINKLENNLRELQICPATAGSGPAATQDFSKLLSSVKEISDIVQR
Sequence of Ras and Rab interactor 1/Tyrosine-protein kinase ABL1 (Q13671 whole entry): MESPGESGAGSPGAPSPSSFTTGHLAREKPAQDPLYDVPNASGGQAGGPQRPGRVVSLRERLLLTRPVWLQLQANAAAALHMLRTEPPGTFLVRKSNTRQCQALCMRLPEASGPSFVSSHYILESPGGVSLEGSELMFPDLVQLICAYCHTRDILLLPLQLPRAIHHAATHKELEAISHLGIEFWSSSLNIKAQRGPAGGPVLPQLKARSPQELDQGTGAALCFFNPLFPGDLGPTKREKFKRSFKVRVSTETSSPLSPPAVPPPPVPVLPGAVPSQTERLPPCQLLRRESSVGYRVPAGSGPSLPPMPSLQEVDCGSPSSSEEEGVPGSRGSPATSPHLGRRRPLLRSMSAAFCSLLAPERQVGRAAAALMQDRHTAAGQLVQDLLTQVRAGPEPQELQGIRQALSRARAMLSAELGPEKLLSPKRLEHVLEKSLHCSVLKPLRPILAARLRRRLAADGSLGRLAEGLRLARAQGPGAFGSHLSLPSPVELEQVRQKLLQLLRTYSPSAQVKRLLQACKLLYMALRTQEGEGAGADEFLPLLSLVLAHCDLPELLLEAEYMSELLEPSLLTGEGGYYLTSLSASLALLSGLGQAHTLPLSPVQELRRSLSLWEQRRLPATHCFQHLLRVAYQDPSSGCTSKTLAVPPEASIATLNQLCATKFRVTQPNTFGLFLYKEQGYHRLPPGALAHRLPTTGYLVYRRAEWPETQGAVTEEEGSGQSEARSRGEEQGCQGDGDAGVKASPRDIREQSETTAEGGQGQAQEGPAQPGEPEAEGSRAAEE

Sequence of Paired box protein Pax-8 (Q06710 whole entry): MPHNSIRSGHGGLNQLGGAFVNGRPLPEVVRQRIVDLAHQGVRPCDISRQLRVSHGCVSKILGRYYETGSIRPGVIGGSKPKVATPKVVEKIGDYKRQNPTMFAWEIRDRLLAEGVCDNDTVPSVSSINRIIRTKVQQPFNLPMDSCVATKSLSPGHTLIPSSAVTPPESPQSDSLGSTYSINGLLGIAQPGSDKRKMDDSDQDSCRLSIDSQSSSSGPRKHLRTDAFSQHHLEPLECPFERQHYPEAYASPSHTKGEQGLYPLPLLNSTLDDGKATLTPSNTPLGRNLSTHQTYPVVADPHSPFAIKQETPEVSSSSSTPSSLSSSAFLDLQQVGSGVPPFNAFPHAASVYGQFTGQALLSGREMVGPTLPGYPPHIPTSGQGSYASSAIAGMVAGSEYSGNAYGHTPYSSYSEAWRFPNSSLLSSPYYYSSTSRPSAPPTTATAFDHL
Sequence of Mitochondrial peptide methionine sulfoxide reductase (P54149 whole entry): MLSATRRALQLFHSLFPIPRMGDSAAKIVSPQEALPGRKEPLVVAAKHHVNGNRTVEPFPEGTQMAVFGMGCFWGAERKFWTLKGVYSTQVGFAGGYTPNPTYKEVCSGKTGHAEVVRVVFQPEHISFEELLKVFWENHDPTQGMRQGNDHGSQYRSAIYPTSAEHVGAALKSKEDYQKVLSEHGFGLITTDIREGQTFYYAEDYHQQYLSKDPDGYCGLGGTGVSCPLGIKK
Sequence of Phospholipase A2 (P04054 whole entry): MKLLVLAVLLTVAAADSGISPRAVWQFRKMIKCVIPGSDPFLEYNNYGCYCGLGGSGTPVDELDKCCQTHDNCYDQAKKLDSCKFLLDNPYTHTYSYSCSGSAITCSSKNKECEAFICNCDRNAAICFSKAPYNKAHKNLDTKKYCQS
Sequence of Genome polyprotein (P29990 2492-3391 limits assumed): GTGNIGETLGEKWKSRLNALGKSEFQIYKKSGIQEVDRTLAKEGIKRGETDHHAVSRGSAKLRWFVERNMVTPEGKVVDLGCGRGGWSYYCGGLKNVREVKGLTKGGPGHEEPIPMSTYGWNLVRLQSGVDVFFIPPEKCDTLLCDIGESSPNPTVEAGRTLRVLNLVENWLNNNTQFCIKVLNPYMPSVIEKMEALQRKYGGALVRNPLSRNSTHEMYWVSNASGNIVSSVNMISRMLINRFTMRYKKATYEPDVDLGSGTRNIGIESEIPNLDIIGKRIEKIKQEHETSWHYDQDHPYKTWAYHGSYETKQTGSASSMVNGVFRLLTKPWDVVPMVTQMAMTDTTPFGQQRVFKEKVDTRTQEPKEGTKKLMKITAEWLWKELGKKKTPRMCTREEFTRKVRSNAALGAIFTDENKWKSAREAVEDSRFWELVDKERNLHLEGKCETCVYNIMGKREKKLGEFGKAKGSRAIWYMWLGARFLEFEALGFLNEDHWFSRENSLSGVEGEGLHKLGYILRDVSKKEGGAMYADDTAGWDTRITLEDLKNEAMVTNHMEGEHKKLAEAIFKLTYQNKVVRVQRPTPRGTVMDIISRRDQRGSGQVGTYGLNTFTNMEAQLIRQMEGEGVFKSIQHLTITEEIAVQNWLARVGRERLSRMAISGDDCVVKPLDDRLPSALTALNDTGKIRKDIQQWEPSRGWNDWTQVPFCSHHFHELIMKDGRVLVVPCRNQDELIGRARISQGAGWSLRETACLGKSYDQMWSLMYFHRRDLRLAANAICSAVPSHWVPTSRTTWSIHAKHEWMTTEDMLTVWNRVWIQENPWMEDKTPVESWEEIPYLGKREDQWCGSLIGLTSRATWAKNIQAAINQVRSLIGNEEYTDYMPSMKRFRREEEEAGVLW

Turning to `COC1=CC(=O)c2c(ccc3ncnc(N)c23)C1=O`, the half-maximal inhibitory concentration (IC50) was 1.56 µM (active) in [1]; 62.4 µM (active) in assay [5]; > 80 µM (inactive) in [6]; 6.81 µM (active) in [10]; 0.842 µM (active) in assay [12]; > 73.4 µM (inactive) in assay [13]. The EC50 in [2] is 14.1 µM (inactive). Further, the half-maximal activity concentration (AC50) in [3] is 9.49 µM (active); in assay [4], 2.53 µM (active); in assay [8], 1.06 µM (active); in [11], 1.28 µM (active). Moreover, the CC50 in assay [7] is 10.4 µM (active); in [9], 4.63 µM (active).

Source of the values: ChEMBL document CHEMBL1201862, “PubChem BioAssay data set” (2004).
